Target: T1, Bcl-2 protein (Homo sapiens, UniProt P10415, DELINS35-91DVEENRTEAPEGTESE, form not given)
T1 construct: fused on or other part: Bcl-xL (Q07817) residues 29-44 stand in place of Bcl-2's own unstructured loop 35-91; The C-terminal membrane anchor (208-239) is absent
Assay: Bcl-2 fluorescence polarization assay (FPA) binding
Conditions: 10 nM Bcl-2 protein, 1 nM fluorescein-labeled BAX peptide, room temperature, read-out: Bcl-2 FPA 11pt Ki
Outline: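 Competitive fluorescence polarization with 10 nM Bcl-2 protein and 1 nM fluorescein-labeled BAX peptide in 20 mM phosphate pH 7.4, 1 mM EDTA, 0.05% PF-68. Compound dilutions in DMSO spanned […] to 10 pM; mix shaken 2 min, polarization read at room temperature (ex 485/em 530 nm); Ki values calculated.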

T1 sequence (P10415 with tags, fused parts or gaps with the stated changes): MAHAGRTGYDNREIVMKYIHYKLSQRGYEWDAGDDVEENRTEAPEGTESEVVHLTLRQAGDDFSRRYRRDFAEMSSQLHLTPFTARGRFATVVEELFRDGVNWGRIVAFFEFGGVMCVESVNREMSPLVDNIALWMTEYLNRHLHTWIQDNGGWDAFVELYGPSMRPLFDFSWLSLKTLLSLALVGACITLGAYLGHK

Row | Ki [nM] | Structure (SMILES)
1 | 191 | C[C@@H]1[C@@H](Nc2cccc(-c3ccc(C(=O)NS(=O)(=O)c4ccc(NCC5CCCCC5)c([N+](=O)[O-])c4)cc3)c2)C[C@H]2C[C@@H]1C2(C)C [Example 4, N-({4-[(cyclohexylmethyl)amino]-3-nitrophenyl}sulfonyl)-3′-{[(1S,2S,3S,5R)-2,6,6-trimethylbicyclo[3.1.1]hept-3-yl]amino}biphenyl-4-carboxamide]
2 | 31.9 | CN1[C@@H]2CC[C@H]1CC(Nc1ccccc1CN1CCN(c3ccc(C(=O)NS(=O)(=O)c4ccc(NCC5CCOCC5)c([N+](=O)[O-])c4)cc3)CC1)C2 (stereo partly drawn) [Example 31, 4-[4-(2-{[(1R,5S)-8-methyl-8-azabicyclo[3.2.1]oct-3-yl]amino}benzyl)piperazin-1-yl]-N-({3-nitro-4-[(tetrahydro-2H-pyran-4-ylmethyl)amino]phenyl}sulfonyl)benzamide]
3 | 31.4 | O=C(NS(=O)(=O)c1ccc(NCC2CCOCC2)c([N+](=O)[O-])c1)c1ccc(N2CCN(Cc3cc([N+](=O)[O-])ccc3N3CC4CCC(CC4)C3)CC2)cc1 [Example 22, 4-{4-[2-(3-azabicyclo[3.2.2]non-3-yl)-5-nitrobenzyl]piperazin-1-yl}-N-({3-nitro-4-[(tetrahydro-2H-pyran-4-ylmethyl)amino]phenyl}sulfonyl)benzamide]
4 | 354 | O=C(NS(=O)(=O)c1ccc(NCC2CCOCC2)c([N+](=O)[O-])c1)c1ccc(N2CCN(Cc3ccccc3-c3ccc(C(=O)NC4CCCCCCC4)o3)CC2)cc1 [Example 29, N-cyclooctyl-5-{2-[(4-{4-[({3-nitro-4-[(tetrahydro-2H-pyran-4-ylmethyl)amino]phenyl}sulfonyl)carbamoyl]phenyl}piperazin-1-yl)methyl]phenyl}-2-furamide]
5 | 295 | CC1(C)C2C=C(c3ccccc3CN3CCN(c4ccc(C(=O)NS(=O)(=O)c5ccc(NCC6CCOCC6)c([N+](=O)[O-])c5)cc4)CC3)C1(C(=O)NCc1ccccc1)CC2 (centres unmarked) [Example 30, N-benzyl-7,7-dimethyl-2-{2-[(4-{4-[({3-nitro-4-[(tetrahydro-2H-pyran-4-ylmethyl)amino]phenyl}sulfonyl)carbamoyl]phenyl}piperazin-1-yl)methyl]phenyl}bicyclo[2.2.1]hept-2-ene-1-carboxamide]
6 | < 20 | O=C(NS(=O)(=O)c1ccc(N[C@H](CCN2CCOCC2)CSc2ccccc2)c([N+](=O)[O-])c1)c1ccc(N2CCN(CC34CC5CC(CC(C5)C3)C4)CC2)cc1 [Example 10, 4-{4-[adamantan-1-ylmethyl]piperazin-1-yl}-N-[(4-{[(2R)-4-(morpholin-4-yl)-1-(phenylthio)butan-2-yl]amino}-3-nitrophenyl)sulfonyl]benzamide]
7 | < 20 | O=C(NS(=O)(=O)c1ccc(NCC2CCOCC2)c([N+](=O)[O-])c1)c1ccc(N2CCN(Cc3ccccc3C3=CC4CC3C3CCCC43)CC2)cc1 (centres unmarked) [Example 23, 4-(4-{2-[2,3,3a,4,7,7a-hexahydro-1H-4,7-methanoinden-5-yl]benzyl}piperazin-1-yl)-N-({3-nitro-4-[(tetrahydro-2H-pyran-4-ylmethyl)amino]phenyl}sulfonyl)benzamide]
8 | 2270 | O=C(NS(=O)(=O)c1ccc(NCC2CCOCC2)c([N+](=O)[O-])c1)c1ccc(N2CCN(Cc3ccccc3-c3cn(C45CC6CC(CC(C6)C4)C5)nc3C(=O)N(c3ccccc3)c3ccccc3)CC2)cc1 [Example 24, 1-[adamantan-1-yl]-4-{2-[(4-{4-[({3-nitro-4-[(tetrahydro-2H-pyran-4-ylmethyl)amino]phenyl}sulfonyl)carbamoyl]phenyl}piperazin-1-yl)methyl]phenyl}-N,N-diphenyl-1H-pyrazole-3-carboxamide]
9 | 2910 | CC1(C)C2C=C(c3ccccc3CN3CCN(c4ccc(C(=O)NS(=O)(=O)c5ccc(NCC6CCOCC6)c([N+](=O)[O-])c5)cc4)CC3)C1(C(=O)O)CC2 (centres unmarked) [Example 39, 7,7-dimethyl-2-{2-[(4-{4-[({3-nitro-4-[(tetrahydro-2H-pyran-4-ylmethyl)amino]phenyl}sulfonyl)carbamoyl]phenyl}piperazin-1-yl)methyl]phenyl}bicyclo[2.2.1]hept-2-ene-1-carboxylic Acid]
10 | 1050 | O=C(NS(=O)(=O)c1ccc(NC2CCOCC2)c([N+](=O)[O-])c1)c1ccc(OCCC23CC4CC(CC(C4)C2)C3)cc1 [Example 51, 4-{2-[adamantan-1-yl]ethoxy}-N-{[3-nitro-4-(tetrahydro-2H-pyran-4-ylamino)phenyl]sulfonyl}benzamide]
11 | 304 | CC12CC3CC(Br)(C1)CC(CN1CCN(c4ccc(C(=O)NS(=O)(=O)c5ccc(NCC6CCCCC6)c([N+](=O)[O-])c5)cc4)CC1)(C3)C2 (centres unmarked) [Example 12, 4-(4-{[3-bromo-5-methyladamantan-1-yl]methyl}piperazin-1-yl)-N-({4-[(cyclohexylmethyl)amino]-3-nitrophenyl}sulfonyl)benzamide]

Further lines, the molecule ahead of its results:

Row | Structure (SMILES) | Ki [nM]
12 | C[C@@H]1[C@@H](N(C(=O)CCc2ccccc2)C2CCN(c3ccc(C(=O)NS(=O)(=O)c4ccc(NCC5CCCCC5)c([N+](=O)[O-])c4)cc3)CC2)C[C@H]2C[C@@H]1C2(C)C [Example 46, N-({4-[(cyclohexylmethyl)amino]-3-nitrophenyl}sulfonyl)-4-(4-{(3-phenylpropanoyl)[(1S,2S,3S,5R)-2,6,6-trimethylbicyclo[3.1.1]hept-3-yl]amino}piperidin-1-yl)benzamide] | 33
13 | O=C(NS(=O)(=O)c1ccc(NCC2CCCCC2)c([N+](=O)[O-])c1)c1ccc(N2CCN(CC34CC5CC(CC(C5)C3)C4)CC2)cc1 [Example 47, 4-{4-[adamantan-1-ylmethyl]piperazin-1-yl}-N-({4-[(cyclohexylmethyl)amino]-3-nitrophenyl}sulfonyl)benzamide] | 66.9
14 | O=C(NS(=O)(=O)c1ccc(NCC2CCOCC2)c([N+](=O)[O-])c1)c1ccc(N2CCN(Cc3ccccc3N3CC4CCC(CC4)C3)CC2)cc1 [Example 33, 4-(4-{2-[3-azabicyclo[3.2.2]non-3-yl]benzyl}piperazin-1-yl)-N-({3-nitro-4-[(tetrahydro-2H-pyran-4-ylmethyl)amino]phenyl}sulfonyl)benzamide] | < 20
15 | CC1(C)OB(c2ccccc2CN2CCN(c3ccc(C(=O)NS(=O)(=O)c4ccc(NCC5CCOCC5)c([N+](=O)[O-])c4)cc3)CC2)OC1(C)C [Example 67, N-({3-nitro-4-[(tetrahydro-2H-pyran-4-ylmethyl)amino]phenyl}sulfonyl)-4-{4-[2-(4,4,5,5-tetramethyl-1,3,2-dioxaborolan-2-yl)benzyl]piperazin-1-yl}benzamide] | 4040
16 | CC1(C)[C@H]2CC(CN3CCN(c4ccc(C(=O)NS(=O)(=O)c5ccc(NCC6CCCCC6)c([N+](=O)[O-])c5)cc4)CC3)=C(c3ccc(Cl)cc3)[C@@H]1C2 [Example 19, 4-(4-{[(1R,5R)-2-(4-chlorophenyl)-6,6-dimethylbicyclo[3.1.1]hept-2-en-3-yl]methyl}piperazin-1-yl)-N-({4-[(cyclohexylmethyl)amino]-3-nitrophenyl}sulfonyl)benzamide] | 603
17 | O=C(NS(=O)(=O)c1ccc(NCC2CCOCC2)c([N+](=O)[O-])c1)c1ccc(N2CCN(Cc3ccccc3C(=C(c3ccccc3)c3ccccc3)c3ccccc3)CC2)cc1 [Example 65, N-({3-nitro-4-[(tetrahydro-2H-pyran-4-ylmethyl)amino]phenyl}sulfonyl)-4-{4-[2-(triphenylvinyl)benzyl]piperazin-1-yl}benzamide] | 928
18 | CC1(C)[C@@H]2CC[C@@]1(CS(=O)(=O)NC(=O)c1ccc(N3CCN(Cc4ccccc4-c4ccc(Cl)cc4)CC3)cc1)C(=O)C2 [Example 59, 4-{4-[(4′-chlorobiphenyl-2-yl)methyl]piperazin-1-yl}-N-({[(1S,4R)-7,7-dimethyl-2-oxobicyclo[2.2.1]hept-1-yl]methyl}sulfonyl)benzamide] | 66.7
19 | O=C(NS(=O)(=O)c1ccc(NC2CCOCC2)c([N+](=O)[O-])c1)c1ccc(N2CCN(C(=O)CC34CC5CC(CC(C5)C3)C4)CC2)cc1 [Example 81, 4-{4-[adamantan-1-ylacetyl]piperazin-1-yl}-N-{[3-nitro-4-(tetrahydro-2H-pyran-4-ylamino)phenyl]sulfonyl}benzamide] | 4730
20 | O=C(NS(=O)(=O)c1ccc(NC2CCOCC2)c([N+](=O)[O-])c1)c1ccc(NCC23CC4CC(CC(C4)C2)C3)cc1 [Example 82, 4-{[adamantan-1-ylmethyl]amino}-N-{[3-nitro-4-(tetrahydro-2H-pyran-4-ylamino)phenyl]sulfonyl}benzamide] | 2180
21 | C[C@H]1[C@H]2C[C@H](CC2Nc2ccccc2CN2CCN(c3ccc(C(=O)NS(=O)(=O)c4ccc(NCC5CCOCC5)c([N+](=O)[O-])c4)cc3)CC2)C1(C)C (stereo partly drawn) [Example 17, N-({3-nitro-4-[(tetrahydro-2H-pyran-4-ylmethyl)amino]phenyl}sulfonyl)-4-[4-(2-{[(1R,4R,6S)-5,5,6-trimethylbicyclo[2.2.1]hept-2-yl]amino}benzyl)piperazin-1-yl]benzamide] | 30.1
22 | CC1(C)[C@H]2CC[C@]1(CS(=O)(=O)NC(=O)c1ccc(N3CCN(Cc4ccccc4-c4ccc(Cl)cc4)CC3)cc1)C(=O)C2 [Example 57, 4-{4-[(4′-chlorobiphenyl-2-yl)methyl]piperazin-1-yl}-N-({[(1R,4S)-7,7-dimethyl-2-oxobicyclo[2.2.1]hept-1-yl]methyl}sulfonyl)benzamide] | 134
23 | C[C@@H]1[C@@H](N(C(=O)c2ccccc2)C2CCN(c3ccc(C(=O)NS(=O)(=O)c4ccc(NCC5CCCCC5)c([N+](=O)[O-])c4)cc3)CC2)C[C@H]2C[C@@H]1C2(C)C [Example 3, 4-(4-{benzoyl[(1S,2S,3S,5R)-2,6,6-trimethylbicyclo[3.1.1]hept-3-yl]amino}piperidin-1-yl)-N-({4-[(cyclohexylmethyl)amino]-3-nitrophenyl}sulfonyl)benzamide] | 65

Source: US8188077B2, “Apoptosis-inducing agents for the treatment of cancer and immune and autoimmune diseases” (Abbott Laboratories, priority 2010, dated 2012)
